Source: patent US8367602B2, “Consensus peptides and a method for inducing biomineralization” (Corticalis AS, priority 2006, dated 2013)
Values joined by “and” are separate entries in the source; they are usually repeats but may differ in a detail not shown here. Identical values can stand only once. Ends that are not written are not given here.

Columns and labels:
[1] = Isoelectric point (pI) of the peptide; type: physicochemical
[2] = Mineral precipitation (mfu by SEM) on peptide-coated coin shaped titanium specimens, Example 1
Experimental: Eight coin shaped implants with a diameter of 6.25 mm, was attached to an titanium electrode and submerged in an sterile electrolyte containing 0.5 M NaCl, adjusted to pH 8.0 by the use of 1.0 M NaOH, and a synthetic poly-proline peptide designed to stimulate nucleation of calcium phosphate crystals. The peptide, having a pI of 5.82, had the following sequence: PLV PSY PLV PSY PLV PSY PYP PLPP (SEQ ID NO:3), and was applied at a final concentration of 0.01 mg/ml in the electrolyte. The electrode was attached to the positive outlet of a power supply, and an electrical current of 10 Volts at 100 mA at a cell temperature of 40 degrees Celsius, was applied for eight hours. The electrolytic process produced a thin peptide coating onto the oxidized titanium surface visible as a greyish precipitation. After coating the titanium specimens were rinsed in sterile water and subsequently put into sterile glass containers where they were allowed to air-dry. Eight identical titanium specimens, treated identically as the test specimens with the exception that no peptides were added to the electrolyte, was produced as controls. After drying, the titanium specimens (peptide coated and controls) were submerged in 50 ml of a saturated solution of calcium phosphate at 50 degrees Celsius. The solution was then allowed to cool to room temperature and incubated at 25 degrees Celsius for 48 hours. The titanium specimens were then removed from the solution, rinsed briefly in sterile water and air-dried in a desiccator. When dry, the implants were directly analyzed by scanning electron microscopy (SEM) for quantitative and qualitative assessment of the number and nature of mineral precipitation foci present on their surfaces. The number of mineral forming units (mfu) on the surface directly corresponds to the number of mineral nucleation sites present on the surface during the experiments.
This is a strong indication that the synthetic peptide used here positively influence the formation of bone mineral deposition onto titanium surfaces.

LDH activity [3] = assay: Wound fluid LDH activity at implant site, physically adsorbed peptide, Example 6; type: in vivo, rabbits (New Zealand White); details: 4 weeks healing, vs control implants; physical adsorption
Experimental: Peptides can be physically adsorbed onto a titanium surface, as an alternative method for covalent binding. Negatively charged carboxylic groups show a strong affinity for metal oxide surfaces and can therefore directly interact with the titanium surface (Imamura et al, 2007). Peptide solution (10 μl, 0.1 mg/ml) was applied to the surface of the titanium implant and incubated for 24 h at 37° C. After 24 h, titanium implants were rinsed and packed with the same method as described above. Control implants were treated with 10 μl of PBS without adding peptide.
(§1) The implants with consensus peptide coated surfaces (n=12) and controls (n=12) were placed in calibrated cortical bone defects in the tibia of rabbits (New Zealand White). A small central fenestration into the bone marrow beneath each implant was made to allow for migration of osteogenic cells to the implant surfaces. The methods used were all according to a standardized and validated model established for the study of bone attachment to titanium implant surfaces (Rønold and Ellingsen, 2002). Each rabbit received four implants, two in each tibia bone. Location of test and control implants was randomized and the operator was blinded. […]
(§2) LDH activity and total protein was analysed in the wound fluid collected from the implant site following a 4 week healing period. […]

LDH activity [4] = assay: Wound fluid LDH activity at implant site, tresyl chloride coupled peptide, Example 5; type: in vivo, rabbits (New Zealand White); details: 4 weeks healing, vs control implants; tresyl chloride coupling
Experimental: The surface of the machined titanium implant was first covered with 10 μl of tresyl chloride (2,2,2-trifluoroethanesulfonyl chloride) and incubated at 37° C. for 2 days. Then, the tresylated titanium implant was washed with water, water-acetone (50:50), acetone, and dried in a desiccator.
Peptide solution (10 μl, 0.1 mg/ml) was applied to the surface of the titanium implant and incubated for 24 h at 37° C., then rinsed with water. Finally, implants were dried in a desiccator, packed and stored at 4° C.
as §1, with “blinded. At four weeks after implantation the rabbits were sacrificed and the tibia bones with the implants attached were excised.” for “blinded.”
as §2

| LDH activity in the periimplant tissue (wound fluid) (LDH activity [3]) | LDH activity in the periimplant tissue (wound fluid) (LDH activity [4]) | Substance | pI [1] | Number of mineral forming units (mfu) per square mm titanium surface assessed by SEM ([2]; individual peptide coated specimens, saturated calcium phosphate solution, 48 hours at 25 degrees Celsius) | Number of mineral forming units (mfu) per square mm titanium surface assessed by SEM, mean values ([2]; mean of peptide coated specimens (n = 8)) | number of mineral deposition foci versus controls ([2]; peptide coated titanium specimens vs controls without peptide) |
| --- | --- | --- | --- | --- | --- | --- |
| – | – | PLV PSY PLV PSY PLV PSY PYP PLPP (PLVPSYPLVPSYPLVPSYPYPPLPP; Mineralization/biomineralization inducing peptide) [SEQ ID NO 3] | 5.82 | 5625 mfu mfu per square mm and Confluent (Values above 10.000 are recorded as “Confluent”) (4×) and 7744 mfu mfu per square mm and 9025 mfu mfu per square mm and 8100 mfu mfu per square mm | >8812 mfu mfu per square mm | significantly (p<0.01) increased |
| decrease | decrease | PLVPSQPLVPSQPLVPSQPQPPLPP [SEQ ID NO 4, PLV PSQ PLV PSQ PLV PSQ PQP PLPP] | – | – | – | – |
